Test results from PMC10315211 (Molecular microbiology, 2023).

Target: CpdAEc (N-His-CpdAEc) (Escherichia coli, UniProt P0AEW4)
Format: biochemical
Conditions: 50 mM Tris-HCl pH 8.0, 0.14 M NaCl, 2 mM MgCl2, room temperature

CpdAEc (N-His-CpdAEc), sequence (P0AEW4 whole entry): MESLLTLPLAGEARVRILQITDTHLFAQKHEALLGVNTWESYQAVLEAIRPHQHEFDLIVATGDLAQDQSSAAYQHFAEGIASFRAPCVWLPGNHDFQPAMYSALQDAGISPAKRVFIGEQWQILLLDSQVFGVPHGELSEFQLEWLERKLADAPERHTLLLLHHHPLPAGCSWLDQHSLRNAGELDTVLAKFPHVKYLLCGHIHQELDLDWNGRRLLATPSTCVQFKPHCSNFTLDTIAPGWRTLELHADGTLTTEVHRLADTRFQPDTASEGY

## C[N+](C)(C)CCOP(=O)([O-])OC[C@H](O)CO [glycerophosphocholine]
  choline oxidase / HRP coupled Amplex Red fluorometric assay: both Rv0805 and CpdAEc produced choline and Gly3P from glycerophosphocholine (GPC)
